From paper PMC6745270 (Neuropharmacology, 2019)
Structures can show the parent of a compound that is named as a salt.

How the values were obtained:
[1] = test system: rats; conditions: ref You et al., 2017, cited from earlier work
[2] = ref Higley et al., 2011, Maramai et al., 2016, Nathan et al., 2012, Stossel et al., 2017, Thanos et al., 2008, Thomsen et al., You et al.; cited from earlier work
[3] = ref Xi and Gardner, 2007; cited from earlier work
[4] = Phase I metabolic stability in rat liver microsomes; type: in vitro ADME; conditions: rat liver microsomes fortified with NADPH, 60 min incubation, 10 μM compound
[5] = Pharmacokinetic study in rats, plasma and brain; type: in vivo; conditions: rat, plasma, po, 10 mg/kg
[6] = test system: Long-Evans rats; assay: Oxycodone self-administration under FR1 reinforcement; type: in vivo, rat
[7] = test system: DAT-Cre mice; assay: Optical intracranial self-stimulation; type: in vivo, mouse; conditions: for effect on oICSS: 5 min prior to testing, vs vehicle
[8] = test system: rats; assay: Hot plate thermal nociception test; type: in vivo, rat
[9] = test system: wild-type C57BL/6J mice; assay: Sucrose self-administration; type: in vivo, mouse
[10] = test system: rats; assay: Open-field locomotor activity; type: in vivo, rat; conditions: 10 or 20 mg/kg i.p., vs vehicle
[11] = test system: Long-Evans rats; assay: Oxycodone self-administration under progressive-ratio; conditions: 20 mg/kg i.p., normalized to baseline, vs vehicle
[12] = test system: rats; conditions: ref Ashby et al., 2003; cited from earlier work

CCc1cc(Cl)c(OC)c(N2CCN(CC(O)CCNC(=O)c3cc4ccccc4[nH]3)CC2)c1 (racemic) [(±)VK4-116]
effect on oxycodone self-administration ([1]; FR1 and PR schedules): dose-dependently inhibited oxycodone self-administration
effect on oxycodone-triggered reinstatement of drug-seeking [1]: suppressed oxycodone-triggered reinstatement of drug-seeking behavior

Cc1ncoc1-c1nnc(SCCCN2C[C@@H]3C[C@]3(c3ccc(C(F)(F)F)cc3F)C2)n1C [GSK598809]
effect on food-taking and food-seeking behavior [2]: significantly inhibit food-taking and food-seeking behavior

O=C(NCCCCN1CCN(c2cccc(Cl)c2Cl)CC1)c1ccc2c(c1)Cc1ccccc1-2 [NGB-2904]
effect on food-taking and food-seeking behavior [2]: significantly inhibit food-taking and food-seeking behavior
effect on cocaine-induced extracellular nucleus accumbens DA [3]: enhanced cocaine-induced increases in extracellular nucleus accumbens DA

O=C(NC/C=C/CN1CCN(c2cccc(Cl)c2Cl)CC1)c1ccc(-c2ccccn2)cc1 [PG01037]
effect on food-taking and food-seeking behavior [2]: significantly inhibit food-taking and food-seeking behavior

CCc1cccc(N2CCN(C[C@H](O)CCNC(=O)c3cc4ccccc4[nH]3)CC2)c1Cl.Cl [R-VK4-40, (R)-N-(4-(4-(2-Chloro-3-ethylphenyl)piperazin-1-yl)-3-hydroxybutyl)-1H-indole-2-carboxamide HCl]
% intact remaining [4]: 86±2%
AUC(0-t) [5]: 1.99 ± 0.28 µM·h
Cmax [5]: 310 ± 110 nM
effect on oxycodone self-administration (infusions earned) ([6]; FR1, 10 or 20 mg/kg i.p. 30 min before session, oxycodone 0.0031-0.05 mg/kg/infusion): dose-dependent reduction in oxycodone self-administration
effect on daily oxycodone intake ([6]; FR1, 10 or 20 mg/kg i.p. pretreatment): reduced oxycodone intake at the 0.00625 and 0.05 mg/kg doses
effect on inactive lever responding ([6]; FR1 oxycodone self-administration): no effect on inactive lever responding
effect on oICSS, compound alone ([7]; R-VK4-40 alone i.p. (10, 20 mg/kg as printed elsewhere in the source)): significant reduction in oICSS
effect of pretreatment on oxycodone-enhanced oICSS ([7]; pretreatment before 1 mg/kg oxycodone): significantly reduced low-dose (1 mg/kg) oxycodone enhancements in oICSS
effect of pretreatment on %MPE ([8]; 20 mg/kg i.p., after 1 mg/kg oxycodone): significant elevation of %MPE
effect of pretreatment on oxycodone analgesia dose-response curve ([8]; 10 or 20 mg/kg i.p. 30 min before oxycodone 0.5-4 mg/kg i.p.): shifted the oxycodone dose-response curve significantly upward
effect on number of sucrose reinforcers earned ([9]; 3 mg/kg i.p., vs vehicle): no statistically significant differences
effect on number of sucrose reinforcers earned ([9]; 10 mg/kg i.p., vs vehicle and 3 mg/kg): significantly reduced the number of sucrose reinforcers earned
effect on open-field locomotion [10]: no effect on open-field locomotion
effect on PR break-point for oxycodone self-administration [11]: significant decrease in break-point

N#Cc1ccc2c(c1)CCN(CCC1CCC(NC(=O)c3ccnc4ccccc34)CC1)C2 (stereo not shown) [SB-277011A]
effect on food-taking and food-seeking behavior [2]: significantly inhibit food-taking and food-seeking behavior
effect on opioid-induced conditioned place preference [12]: significantly inhibits opioid-induced conditioned place preferences (CPP)

COc1ccc2c3c1O[C@H]1C(=O)CC[C@@]4(O)[C@@H](C2)N(C)CC[C@]314 [oxycodone, Oxycodone HCl, reference compound]
effect on oICSS ([7]; 1 mg/kg i.p.): significant increase in oICSS
effect on oICSS ([7]; 3 mg/kg i.p.): significant reduction in oICSS
time of peak antinociceptive effect ([8]; hot plate, after administration): 30 min
